Data as given in paper PMC10387993, “New pyrimidine-N-β-D-glucosides: synthesis, biological evaluation, and molecular docking investigations” (Turkish Journal of Chemistry, 2023).
In brackets after ≈: the same amount, converted by molar mass. Like-named read-outs stand apart in the source and are kept apart here.

Tests used:
Type in all cases: cell-based
[1] = tested on: S. aureus MSSA ATCC 29213; assay: Microdilution MIC assay; conditions: S. aureus MSSA ATCC 29213, 24 h at 35 °C
Procedure, shortened: (§1)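 Visually scored microwell dilution test (35 °C, 24 h), endpoint no turbidity.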

S. mutans ATCC 35668 = assay: Microdilution MIC assay; conditions: S. mutans ATCC 35668, 24 h at 35 °C
Procedure, shortened: as §1

S. gordonii NCTC 7870 = assay: Microdilution MIC assay; conditions: Streptococcus gordonii, NCTC7870; S. gordonii NCTC 7870, 24 h at 35 °C
Procedure, shortened: as §1

[2] = tested on: S. aureus MRSA ATCC 46300; assay: Microdilution MIC assay; conditions: S. aureus MRSA ATCC 46300, 24 h at 35 °C
Procedure, shortened: as §1

[3] = tested on: P. aeruginosa AGME ATCC 27853; assay: Microdilution MIC assay; conditions: Pseudomonas aeruginosa, ATCC27853; P. aeruginosa AGME ATCC 27853, 24 h at 35 °C
Procedure, shortened: as §1

E. faecalis ATCC 29212 = assay: Microdilution MIC assay; conditions: Enterococcus faecalis, ATCC29212, 24 h, E. faecalis ATCC 29212, 24 h at 35 °C; read-out: MIC
Procedure, shortened: as §1

[4] = tested on: E. faecalis VRE ATCC 19433; assay: Microdilution MIC assay; conditions: Enterococcus faecalis; E. faecalis VRE ATCC 19433, 24 h at 35 °C
Procedure, shortened: as §1

E. coli ATCC 25922 = assay: Microdilution MIC assay; conditions: Escherichia coli, ATCC25922; E. coli ATCC 25922, 24 h at 35 °C
Procedure, shortened: as §1

[5] = tested on: A. actinomycetemcomitans ATCC 33384; assay: Microdilution MIC assay; conditions: Aggregatibacter actinomycetemcomitans, ATCC33384; A. actinomycetemcomitans ATCC 33384, 24 h at 35 °C
Procedure, shortened: as §1

E. coli ESBL ATCC 35218 = assay: Microdilution MIC assay; conditions: Escherichia coli, ATCC35218; E. coli ESBL ATCC 35218, 24 h at 35 °C
Procedure, shortened: as §1

Hep3B = assay: cells; conditions: Homo sapiens; for GI50 / IC50 / IC (total growth inhibition): MTT; for IC50: read-out: IC50; for IC (total growth inhibition): read-out: TGI; for LC50 (concentration causing 50% net cell loss relative to time zero): read-out: LC50
Procedure, shortened: (§2)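 In this MTT proliferation screen, formazan formed over 4 h was read at 560 nm against a 690 nm reference. Each line was tested at least three times, and the IC50 was taken as the concentration inhibiting half of the cells.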

C6 (Rat brain glioma) = assay: cells; conditions: Rattus norvegicus; for LC50 (concentration giving 50% net cell loss relative to time zero): read-out: LC50; for GI50 / IC50 / IC (total growth inhibition): C6, MTT; for IC50: read-out: IC50; for IC (total growth inhibition): read-out: TGI
Procedure, shortened: as §2

HT29 = assay: cells; conditions: Homo sapiens; for LC50 (concentration giving 50% net cell loss relative to time zero): HT-29, read-out: LC50; for GI50 / IC50 / IC (total growth inhibition): HT-29, HT29, MTT; for IC50: read-out: IC50; for IC (total growth inhibition): read-out: TGI
Procedure, shortened: as §2

HeLa = assay: cells; conditions: Homo sapiens; for GI50 / IC50 / IC (total growth inhibition): MTT; for IC50: read-out: IC50; for IC (total growth inhibition): read-out: TGI; for LC50 (concentration causing 50% net cell loss): read-out: LC50
Procedure, shortened: as §2

A549 = assay: cells; conditions: Homo sapiens; for LC50 (concentration causing 50% net cell loss): A549, read-out: LC50; for GI50 / IC50 / IC (total growth inhibition): A549, MTT; for IC50: read-out: IC50; for IC (total growth inhibition): read-out: TGI
Procedure, shortened: as §2

MCF7 = assay: cells; conditions: Homo sapiens; for LC50 (concentration causing 50% net cell loss relative to time zero): MCF7, read-out: LC50; for GI50 / IC50 / IC (total growth inhibition): MCF7, MTT; for IC50: read-out: IC50; for IC (total growth inhibition): read-out: TGI
Procedure, shortened: as §2

[6] = LDH cytotoxic activity assay, C6; conditions: rat, C6 glioma cells; for cytotoxicity at 24 h, 25 μg/mL: C6, 25 μg/mL; for cytotoxicity at 24 h, 50 μg/mL: C6, 50 μg/mL; for cytotoxicity at 24 h, 75 μg/mL: C6, 75 μg/mL; for cytotoxicity at 24 h, 100 μg/mL: C6, 100 μg/mL
Procedure, shortened: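 Harvest ~80%-confluent cells with trypsin-EDTA, seed ~5 × 10^3 per well in DMEM or RPMI 1640 containing 10% FBS, then add compound at 25–100 μg/mL (four levels) for 24 h at 37 °C. Finish by reading LDH activity at 492–630 nm.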

[7] = Staphylococcus aureus, 24 h, read-out: MIC
[8] = Streptococcus mutans, ATCC35668, 24 h, read-out: MIC
[9] = Staphylococcus aureus, read-out: MIC

| SMILES | MIC [1, 7] [µg/mL] | MIC (S. mutans ATCC 35668; [8]) [µg/mL] | MIC (S. gordonii NCTC 7870) [µg/mL] | MIC [2, 9] [µg/mL] | MIC [3] [µg/mL] | MIC (E. faecalis ATCC 29212) [µg/mL] | MIC [4] [µg/mL] | MIC (E. coli ATCC 25922) [µg/mL] | MIC [5] [µg/mL] | MIC (E. coli ESBL ATCC 35218) [µg/mL] | GI50 (Hep3B) [µg/mL] | IC50 (Hep3B) [µg/mL] | IC (total growth inhibition) (Hep3B) [µg/mL] | LC50 (concentration causing 50% net cell loss relative to time zero) (Hep3B) [µg/mL] | LC50 (concentration giving 50% net cell loss relative to time zero) (C6 (Rat brain glioma)) [µg/mL] | GI50 (C6 (Rat brain glioma)) [µg/mL] | IC50 (C6 (Rat brain glioma)) [µg/mL] | IC (total growth inhibition) (C6 (Rat brain glioma)) [µg/mL] | LC50 (concentration giving 50% net cell loss relative to time zero) (HT29) [µg/mL] | GI50 (HT29) [µg/mL] | other results |
| --- | --- | --- | --- | --- | --- | --- | --- | --- | --- | --- | --- | --- | --- | --- | --- | --- | --- | --- | --- | --- | --- |
| Cc1ccc(-c2cc(-c3ccccn3)nc(N[C@@H]3O[C@H](CO)[C@@H](O)[C@H](O)[C@H]3O)n2)cc1 [Compound 7, N-[4-(4-methylphenyl)-6-pyridin-2-ylpyrimidin-2-yl]-β-D-glucopyranosylamine] | 250 (≈ 589 µM) | 62.5 to 125 (≈ 147 to 294 µM) | 500 (≈ 1180 µM) | 250 (≈ 589 µM) | > 1000 | 250 (≈ 589 µM) | 1000 (≈ 2360 µM) | > 1000 | 250 (≈ 589 µM) | > 1000 | 4.26 (≈ 10 µM) | 183 (≈ 430 µM) | 194 | > 500 | 88.3 (≈ 208 µM) | 8.15 (≈ 19.2 µM) | 29.3 (≈ 69 µM) | 21.5 | > 500 | 2.5 (≈ 5.89 µM) | MIC (S. mutans ATCC 35668): 125 µg/mL (≈ 294 µM); IC50 (HT29): 29.9 µg/mL (≈ 70.5 µM); IC (total growth inhibition) (HT29): 49.2 µg/mL; GI50 (HeLa): 7.17 µg/mL (≈ 16.9 µM); IC50 (HeLa): 31.9 µg/mL (≈ 75 µM); IC (total growth inhibition) (HeLa): 21.6 µg/mL; LC50 (concentration causing 50% net cell loss) (HeLa): 120 µg/mL (≈ 284 µM); LC50 (concentration causing 50% net cell loss) (A549): > 500 µg/mL; GI50 (A549): 125 µg/mL (≈ 295 µM); IC50 (A549): > 500 µg/mL; IC (total growth inhibition) (A549): > 500 µg/mL; LC50 (concentration causing 50% net cell loss relative to time zero) (MCF7): > 500 µg/mL; GI50 (MCF7): 2.04 µg/mL (≈ 4.81 µM); IC50 (MCF7): > 500 µg/mL; IC (total growth inhibition) (MCF7): > 500 µg/mL; cytotoxicity at 24 h, 25 μg/mL [6]: 22%; cytotoxicity at 24 h, 50 μg/mL [6]: 48.6%; cytotoxicity at 24 h, 75 μg/mL [6]: 69.5%; cytotoxicity at 24 h, 100 μg/mL [6]: 85.8% |
| Cc1ccc(-c2cc(-c3cccnc3)nc(N[C@@H]3O[C@H](CO)[C@@H](O)[C@H](O)[C@H]3O)n2)cc1 [Compound 8, N-[4-(4-methylphenyl)-6-pyridin-3-ylpyrimidin-2-yl]-β-D-glucopyranosylamine] | 62.5 to 125 (≈ 147 to 294 µM) | 250 (≈ 589 µM) | 250 (≈ 589 µM) | < 7.81 | > 1000 | 1000 (≈ 2360 µM) | 500 (≈ 1180 µM) | 1000 (≈ 2360 µM) | 500 (≈ 1180 µM) | > 1000 | 6.38 (≈ 15 µM) | > 500 | > 500 | > 500 | 225 (≈ 530 µM) | 8.71 (≈ 20.5 µM) | 49 (≈ 115 µM) | 30.7 | > 500 | 4.43 (≈ 10.4 µM) | MIC [1]: 62.5 µg/mL (≈ 147 µM); MIC [2]: <7.81 µg/mL; IC50 (HT29): 42.5 µg/mL (≈ 100 µM); IC (total growth inhibition) (HT29): 60 µg/mL; GI50 (HeLa): 14.1 µg/mL (≈ 33.2 µM); IC50 (HeLa): 81.3 µg/mL (≈ 191 µM); IC (total growth inhibition) (HeLa): 50.1 µg/mL; LC50 (concentration causing 50% net cell loss) (HeLa): 325 µg/mL (≈ 766 µM); LC50 (concentration causing 50% net cell loss) (A549): > 500 µg/mL; GI50 (A549): > 500 µg/mL; IC50 (A549): > 500 µg/mL; IC (total growth inhibition) (A549): > 500 µg/mL; LC50 (concentration causing 50% net cell loss relative to time zero) (MCF7): > 500 µg/mL; GI50 (MCF7): 1.7 µg/mL (≈ 4.01 µM); IC50 (MCF7): > 500 µg/mL; IC (total growth inhibition) (MCF7): > 500 µg/mL; cytotoxicity at 24 h, 25 μg/mL [6]: 28.4%; cytotoxicity at 24 h, 50 μg/mL [6]: 45.4%; cytotoxicity at 24 h, 75 μg/mL [6]: 63.2%; cytotoxicity at 24 h, 100 μg/mL [6]: 88.7% |
